Assay results as given in ChEMBL document CHEMBL3792284, “Synthesis of triazoloquinazolinone based compounds as tubulin polymerization inhibitors and vascular disrupting agents” (Eur J Med Chem, 2016).

Tests used:
Tubulin = Tubulin (Bos taurus, UniProt Q6B856+Q862L2+Q862F3); experiment: Inhibition of bovine tubulin polymerization after 1 hr by fluorescence spectrometry; assay type: protein assay
HT-29 [1] = experiment: Antiproliferative activity against human HT-29 cells at 10 uM after 72 hrs by MTS assay; assay type: functional; details: HT-29, 72 h
[2] = Growth inhibition of human HL-60(TB) cells at 10 uM after 48 hrs by sulforhodamine B assay; assay type: functional; details: HL-60, 48 h, read-out: GI
K562 = experiment: Growth inhibition of human K562 cells at 10 uM after 48 hrs by sulforhodamine B assay; assay type: functional; details: K562, 48 h, read-out: GI
SR [3] = experiment: Growth inhibition of human SR cells at 10 uM after 48 hrs by sulforhodamine B assay; assay type: functional; details: read-out: GI
NCI-H522 [4] = experiment: Growth inhibition of human NCI-H522 cells at 10 uM after 48 hrs by sulforhodamine B assay; assay type: functional; details: NCI-H522, 48 h, read-out: GI
[5] = Growth inhibition of human COLO205 cells at 10 uM after 48 hrs by sulforhodamine B assay; assay type: functional; details: COLO 205, 48 h, read-out: GI
[6] = Growth inhibition of human HCT116 cells at 10 uM after 48 hrs by sulforhodamine B assay; assay type: functional; details: HCT-116, 48 h, read-out: GI
[7] = Growth inhibition of human HCT15 cells at 10 uM after 48 hrs by sulforhodamine B assay; assay type: functional; details: HCT-15, 48 h, read-out: GI
HT-29 [8] = experiment: Growth inhibition of human HT-29 cells at 10 uM after 48 hrs by sulforhodamine B assay; assay type: functional; details: HT-29, 48 h, read-out: GI
[9] = Growth inhibition of human SNB75 cells at 10 uM after 48 hrs by sulforhodamine B assay; assay type: functional; details: SNB-75, 48 h, read-out: GI
U-251 [10] = experiment: Growth inhibition of human U251 cells at 10 uM after 48 hrs by sulforhodamine B assay; assay type: functional; details: U-251, 48 h, read-out: GI
MDA-MB-435 [11] = experiment: Growth inhibition of human MDA-MB-435 cells at 10 uM after 48 hrs by sulforhodamine B assay; assay type: functional; details: MDA-MB-435, 48 h, read-out: GI
SK-MEL-5 [12] = experiment: Growth inhibition of human SK-MEL-5 cells at 10 uM after 48 hrs by sulforhodamine B assay; assay type: functional; details: SK-MEL-5, 48 h, read-out: GI
[13] = Growth inhibition of human OVCAR3 cells at 10 uM after 48 hrs by sulforhodamine B assay; assay type: functional; details: OVCAR-3, 48 h, read-out: GI
[14] = Growth inhibition of human NCI-ADR-RES cells at 10 uM after 48 hrs by sulforhodamine B assay; assay type: functional; details: read-out: GI
A498 = experiment: Growth inhibition of human A498 cells at 10 uM after 48 hrs by sulforhodamine B assay; assay type: functional; details: A498, 48 h, read-out: GI
[15] = Growth inhibition of human Caki1 cells at 10 uM after 48 hrs by sulforhodamine B assay; assay type: functional; details: CAKI-1, 48 h, read-out: GI
[16] = Growth inhibition of human DU145 cells at 10 uM after 48 hrs by sulforhodamine B assay; assay type: functional; details: DU-145, 48 h, read-out: GI
MCF7 [17] = experiment: Growth inhibition of human MCF7 cells at 10 uM after 48 hrs by sulforhodamine B assay; assay type: functional; details: MCF7, 48 h, read-out: GI
MDA-MB-468 = experiment: Growth inhibition of human MDA-MB-468 cells at 10 uM after 48 hrs by sulforhodamine B assay; assay type: functional; details: MDA-MB-468, 48 h, read-out: GI
[18] = Growth inhibition of human HL-60(TB) cells after 48 hrs by sulforhodamine B assay; assay type: functional; details: HL-60, 48 h
SR [19] = experiment: Growth inhibition of human SR cells after 48 hrs by sulforhodamine B assay; assay type: functional
A549 = experiment: Growth inhibition of human A549/ATCC cells after 48 hrs by sulforhodamine B assay; assay type: functional; details: A549, 48 h
[20] = Growth inhibition of human HOP62 cells after 48 hrs by sulforhodamine B assay; assay type: functional; details: HOP-62, 48 h
[21] = Growth inhibition of human COLO205 cells after 48 hrs by sulforhodamine B assay; assay type: functional; details: COLO 205, 48 h
[22] = Growth inhibition of human HCT116 cells after 48 hrs by sulforhodamine B assay; assay type: functional; details: HCT-116, 48 h
HT-29 [23] = experiment: Growth inhibition of human HT-29 cells after 48 hrs by sulforhodamine B assay; assay type: functional; details: HT-29, 48 h
[24] = Growth inhibition of human SNB75 cells after 48 hrs by sulforhodamine B assay; assay type: functional; details: SNB-75, 48 h
U-251 [25] = experiment: Growth inhibition of human U251 cells after 48 hrs by sulforhodamine B assay; assay type: functional; details: U-251, 48 h
MDA-MB-435 [26] = experiment: Growth inhibition of human MDA-MB-435 cells after 48 hrs by sulforhodamine B assay; assay type: functional; details: MDA-MB-435, 48 h
SK-MEL-5 [27] = experiment: Growth inhibition of human SK-MEL-5 cells after 48 hrs by sulforhodamine B assay; assay type: functional; details: SK-MEL-5, 48 h
[28] = Growth inhibition of human PC3 cells after 48 hrs by sulforhodamine B assay; assay type: functional; details: PC-3, 48 h
[29] = Growth inhibition of human DU145 cells after 48 hrs by sulforhodamine B assay; assay type: functional; details: DU-145, 48 h
MCF7 [30] = experiment: Growth inhibition of human MCF7 cells after 48 hrs by sulforhodamine B assay; assay type: functional; details: MCF7, 48 h
[31] = Cytotoxicity against human HL-60(TB) cells assessed as cell growth at 10 uM after 48 hrs by sulforhodamine B assay; assay type: functional; details: HL-60, 48 h, read-out: Activity
NCI-H522 [32] = experiment: Cytotoxicity against human NCI-H522 cells assessed as cell growth at 10 uM after 48 hrs by sulforhodamine B assay; assay type: functional; details: NCI-H522, 48 h, read-out: Activity
MDA-MB-435 [33] = experiment: Cytotoxicity against human MDA-MB-435 cells assessed as cell growth at 10 uM after 48 hrs by sulforhodamine B assay; assay type: functional; details: MDA-MB-435, 48 h, read-out: Activity
[34] = Cytotoxicity against human OVCAR3 cells assessed as cell growth at 10 uM after 48 hrs by sulforhodamine B assay; assay type: functional; details: OVCAR-3, 48 h, read-out: Activity
HUVEC [35] = experiment: Inhibition of cell invasion of HUVEC after 24 hrs by crystal violet staining based Boyden chamber assay; assay type: functional; details: Homo sapiens
HUVEC [36] = experiment: Inhibition of cell invasion of HUVEC at 0.01 uM after 24 hrs by crystal violet staining based Boyden chamber assay; assay type: functional; details: Homo sapiens
HUVEC [37] = experiment: Inhibition of cell invasion of HUVEC at 0.1 uM after 24 hrs by crystal violet staining based Boyden chamber assay; assay type: functional; details: Homo sapiens
HUVEC [38] = experiment: Inhibition of cell invasion of HUVEC at 1 uM after 24 hrs by crystal violet staining based Boyden chamber assay; assay type: functional; details: Homo sapiens
HUVEC [39] = experiment: Antiangiogenic activity in HUVEC assessed as disruption of capillaries after 6 hrs by inverted microscopic analysis; assay type: functional, cell-based; details: Homo sapiens
HUVEC [40] = experiment: Cytotoxicity against HUVEC assessed as inhibition of cell proliferation after 72 hrs by MTS assay; assay type: cell-based; details: Homo sapiens
HUVEC [41] = experiment: Cytotoxicity against HUVEC at 1 uM after 72 hrs by MTS assay; assay type: cell-based; details: human

## COc1ccc(-c2nnc3n(C)c(=O)c4ccccc4n23)cc1O
Tubulin
  IC50: 150 nM
HT-29 [1]
  inhibition at 10 µM: 71%
[2]
  inhibition of growth at 10 µM: 100%
K562
  inhibition of growth at 10 µM: 92%
SR [3]
  inhibition of growth at 10 µM: 95%
NCI-H522 [4]
  inhibition of growth at 10 µM: 100%
[5]
  inhibition of growth at 10 µM: 83%
[6]
  inhibition of growth at 10 µM: 86%
[7]
  inhibition of growth at 10 µM: 81%
HT-29 [8]
  inhibition of growth at 10 µM: 81%
[9]
  inhibition of growth at 10 µM: 88%
U-251 [10]
  inhibition of growth at 10 µM: 82%
MDA-MB-435 [11]
  inhibition of growth at 10 µM: 100%
SK-MEL-5 [12]
  inhibition of growth at 10 µM: 75%
[13]
  inhibition of growth at 10 µM: 100%
[14]
  inhibition of growth at 10 µM: 85%
A498
  inhibition of growth at 10 µM: 66%
[15]
  inhibition of growth at 10 µM: 66%
[16]
  inhibition of growth at 10 µM: 81%
MCF7 [17]
  inhibition of growth at 10 µM: 85%
MDA-MB-468
  inhibition of growth at 10 µM: 70%
[18]
  GI50: 64 nM
SR [19]
  GI50: 31 nM
A549
  GI50: 1840 nM
[20]
  GI50: 48 nM
[21]
  GI50: 3820 nM
[22]
  GI50: 57 nM
HT-29 [23]
  GI50: 4310 nM
[24]
  GI50: 41 nM
U-251 [25]
  GI50: 125 nM
MDA-MB-435 [26]
  GI50: 23 nM
SK-MEL-5 [27]
  GI50: 59 nM
[28]
  GI50: 1430 nM
[29]
  GI50: 2360 nM
MCF7 [30]
  GI50: 48 nM
[31]
  growth at 10 µM: 19%
NCI-H522 [32]
  growth at 10 µM: 5%
MDA-MB-435 [33]
  growth at 10 µM: 62%
[34]
  growth at 10 µM: 16%
HUVEC [35]
  inhibition: Dose-dependent effect
HUVEC [36]
  inhibition at 0.01 µM: 12%
HUVEC [37]
  inhibition at 0.1 µM: 36%
HUVEC [38]
  inhibition at 1 µM: 89%
HUVEC [39]
  Activity: Dose-dependent effect
HUVEC [40]
  IC50: 2480 nM
HUVEC [41]
  Activity: Non-toxic
